Earlier results as cited in patent US20210322405A1, “COMPOSITIONS AND METHODS FOR TREATING CANCER” (Washington University, priority 2020, published 2021).

Assays:
[1] = tested on: GBM patients; details: clinical trial; Butowski et al., 2016
[2] = tested on: ALK-inhibitor resistant ALK-driven patient-derived cell lines; details: SHP099 in combination with the ALK inhibitor ceritinib; Dardaei et al., 2018
[3] = tested on: G6PD; details: dose-dependent manner; Bernstock et al., 2017

Compound: FC(F)(F)c1ccc(CNc2ccc(Cc3c[nH]c4ncc(Cl)cc34)cn2)cn1 [PLX3397]
- clinical benefit for GBM patients [1]: did not show clear benefit

Compound: CC1(N)CCN(c2cnc(-c3cccc(Cl)c3Cl)c(N)n2)CC1 [SHP099]
- Shp2-activation-mediated resistance to ALK inhibitor [2]: overcome

Compound: CC[C@@]1(O)C(=O)OCc2c1cc1n(c2=O)Cc2cc3c(CN(C)C)c(O)ccc3nc2-1 [topotecan]
- activity of G6PD [3]: decreases
